Data taken from patent US20090068290A1, “BIFEPRUNOX DOSES FOR TREATING SCHIZOPHRENIA” (priority 2006, published 2009).

Legend:
[1] = tested on: CYP2C9, CYP3A4, CYP2D6; assay: Metabolism and drug interactions of bifeprunox
Source text: (§1) The objective of this study is to assess the pharmacokinetics (PK) of bifeprunox. The PK of bifeprunox in healthy subjects were investigated based on a pooled analysis of PK parameters from 21 clinical pharmacology studies. The pooled analysis included PK profiles after single and multiple doses to 132 and 399 subjects, respectively, and explored the potential effects of age, gender, body weight, and race. In addition, PK in patients with schizophrenia were investigated using a population PK approach based on samples from 376 patients in phase II studies and 434 patients in phase III studies.

[2] = tested on: patients with chronic schizophrenia; assay: CGI-S score, Clinical Study Four; assay type: in vivo, human; conditions: FAS, ANCOVA; for CGI-S, Adjusted Mean Change from Baseline (LS mean): LOCF; for mean CGI-S scores, time points of statistically significant superiority to PBO: per-visit LOCF analysis
Method: (§2) METHODOLOGY: This study was a multinational, multicenter, randomized, double-blind, parallel-group, placebo-controlled, fixed-dose study. The study consisted of a 3- to 6-day antipsychotic-free run-in period, after which patients were randomised to 6 months of double-blind treatment with fixed doses of bifeprunox (20 mg/day (BX20) or 30 mg/day (BX30)) or placebo (PBO). Patients allocated to the BX groups were up-titrated from 0.25 mg/day over 7 days (BX20) or 8 days (BX30), and then continued on these doses for the remainder of the study. […] At predetermined time points, blood samples were obtained for drug concentration analysis of BX and its major metabolites (3′- and 4′-sulfate conjugates of BX), and pharmaco-economic assessments were performed.

[3] = tested on: patients with chronic schizophrenia; assay: CGI-I score and CGI-I responders (score 2 or less), Clinical Study Four; assay type: in vivo, human; conditions: FAS; for proportion of patients with a CGI-I score ≦2 / CGI-I, Adjusted mean values (LS mean): LOCF; for CGI-I, Adjusted mean values (LS mean): adjusted mean values instead of change from baseline
Method: as §2
CLINICAL STUDY FOUR: The proportion of patients with a CGI-I score ≦2 at each visit (CGI-I responders; FAS, LOCF) is show below in FIG. 5.

[4] = Pooled metabolic analysis, 6-week studies: lipid profile
Source text: (§3) OBJECTIVE: To examine the metabolic effects of bifeprunox in patients with acute and stable schizophrenia.
(§4) METHODS: Metabolic data was compiled from one 6-month and four 6-week studies (i.e., a treatment period) of bifeprunox in patients with stable and acute schizophrenia, respectively. In the 6-month study, patients received bifeprunox (n=331) or placebo (PBO) (n=166). […] Metabolic evaluations included body weight, body mass index (BMI), plasma glucose and lipid profiles. Fasting glucose and lipid values were assessed in one 6-week study and in the 6-month study. Triglyceride:HDL ratio (TG:HDL) was calculated as a marker of insulin resistance. No statistical analyses were performed; only descriptive statistics are presented.

[5] = Pooled metabolic analysis, 6-month study: body weight; conditions: for Weight, Mean (SD) change from baseline: endpoint
Source text: as §3, §4

[6] = tested on: patients with chronic schizophrenia; assay: BPRS total and psychosis cluster scores, Clinical Study Four; assay type: in vivo, human; conditions: FAS, LOCF, ANCOVA
Method: as §2

[7] = Food effect on bifeprunox PK (standard high-fat meal)
Source text: as §1

[8] = Metabolic syndrome status, Clinical Study Four; assay type: in vivo, human; conditions: 6 months
Method: as §2

[9] = Clinical laboratory assessments (lipid shifts, thyroid function), Clinical Study Two; assay type: in vivo, human
Method: Pharmacokinetic (PK) data of bifeprunox in schizophrenic subjects were also assessed and are presented in a separate report (combined with data from study S1543003).
Subjects who completed this study had the option to continue in the long-term. […] Risperidone-treated subjects were titrated from 2 mg to 6 mg daily over a three-day period and were subsequently maintained at 6 mg/day for the remainder of the treatment period. […] Blood samples were also obtained at Screening/Baseline, Week 3, and Week 6 for clinical laboratory assessments.

[10] = tested on: patients with chronic schizophrenia; assay: PANSS positive subscale score, Clinical Study Four; assay type: in vivo, human; conditions: FAS, ANCOVA; for PANSS positive subscale, Adjusted Mean Change from Baseline (LS mean): LOCF
Method: as §2

[11] = fasting, endpoint, 6-week studies, BX total, OLZ 15 mg
[12] = non-fasting, endpoint, 6-week studies, BX total, RISP 6 mg, OLZ 15 mg, HAL 10 mg
[13] = baseline BMI 18.5-25 kg/m^2, BX total doses
[14] = baseline BMI <18.5 kg/m^2, BX total doses
[15] = baseline BMI >25-30 kg/m^2, BX total doses
[16] = baseline BMI >30 kg/m^2, BX total doses
[17] = baseline BMI All, BX total doses

O=c1[nH]c2cccc(N3CCN(Cc4cccc(-c5ccccc5)c4)CC3)c2o1 [Bifeprunox, 7-[4-([1,1′-biphenyl]-3-ylmethyl)-1-piperazinyl]-2(3H)-benzoxazolone]
metabolizing enzymes ([1]; human, in vivo): metabolized by CYP2C9, CYP3A4 and to a lesser extent, CYP2D6
interaction potential ([1]; in vivo): low interaction potential
plasma levels in CYP2C9 slow/intermediate metabolizers ([1]; vs subjects with normal enzyme activity): higher plasma levels
bifeprunox exposure on co-administration ([1]; with carbamazepine (CYP3A4 inducer)): reduced
bifeprunox exposure on co-administration ([1]; with fluconazole (CYP2C9 inhibitor)): increased
CGI-S, Adjusted Mean Change from Baseline (LS mean) ([2]; Month 6, listed as BX20): −0.1
CGI-S, Adjusted Mean Change from Baseline (LS mean) ([2]; Month 6, listed as BX30): 0.0
CGI-S, Adjusted Mean Change from Baseline (LS mean) ([2]; Week 6, listed as BX20): −0.2
CGI-S, Adjusted Mean Change from Baseline (LS mean) ([2]; Week 6, listed as BX30): −0.1
mean CGI-S scores, time points of statistically significant superiority to PBO ([2]; listed as BX20): Months 3, 4, 5, and 6
mean CGI-S scores, time points of statistically significant superiority to PBO ([2]; listed as BX30): Months 5 and 6
proportion of patients with a CGI-I score ≦2 ([3]; BX20, Month 6): 22%
proportion of patients with a CGI-I score ≦2 ([3]; BX20, Week 6): 17%
proportion of patients with a CGI-I score ≦2 ([3]; BX30, Month 6): 20%
proportion of patients with a CGI-I score ≦2 ([3]; BX30, Week 6): 19%
CGI-I, Adjusted mean values (LS mean) ([3]; Month 6, ANCOVA): 4.0
CGI-I, Adjusted mean values (LS mean) ([3]; Week 6, ANCOVA, listed as BX20): 3.8
CGI-I, Adjusted mean values (LS mean) ([3]; Week 6, ANCOVA, listed as BX30): 3.7
mean CGI-I scores versus PBO, per-visit LOCF analysis ([3]; both BX doses, ANCOVA): statistically significantly superior to PBO from Week 6 onwards
change in total cholesterol (TC) ([4]; 6-week studies): -0.40 mmol/L
decrease in total cholesterol (TC) ([4]; 6-week studies): 8%
non-fasting total cholesterol and triglyceride at endpoint (in words) ([4]; 6-week studies): greatest decreases
change in TG ([4]; 6 week studies): -0.44 mmol/L
decrease in TG ([4]; 6 week studies): 24%
Fasting HDL, Mean change (SD) [4, 11]: −0.5 (10.7) mg/dL
Fasting HDL, Percentage mean change [4, 11]: −1.0%
Total cholesterol, Mean change (SD) [4, 11]: −15.5 (32.9) mg/dL
Total cholesterol, Percentage mean change [4, 11]: −7.9%
Triglyceride:HDL ratio, Mean change (SD) [4, 11]: −0.4 (0.9)
Triglyceride:HDL ratio, Percentage mean change [4, 11]: −23.8%
Triglycerides, Mean change (SD) [4, 11]: −38.9 (73.5) mg/dL
Triglycerides, Percentage mean change [4, 11]: −24.2%
Total cholesterol, Mean change (SD) [4, 12]: −12.9 (0.8) mg/dL
Triglycerides, Mean change (SD) [4, 12]: −38.7 (1.3) mg/dL
≧7% weight decrease, (%) [5, 13]: 8.7%
≧7% weight increase, (%) [5, 13]: 3.3%
≧7% weight decrease, (%) [5, 14]: 23.1%
≧7% weight decrease, (%) [5, 15]: 4.7%
≧7% weight increase, (%) [5, 15]: 2.4%
≧7% weight decrease, (%) [5, 16]: 12.8%
≧7% weight decrease, (%) [5, 17]: 8.8%
≧7% weight increase, (%) [5, 17]: 2.5%
Weight, Mean (SD) change from baseline [5, 13]: −0.9 (2.9) kg
Weight, Mean (SD) change from baseline [5, 14]: −0.8 (2.6) kg
Weight, Mean (SD) change from baseline [5, 15]: −0.9 (2.7) kg
Weight, Mean (SD) change from baseline [5, 16]: −3.0 (5.6) kg
Weight, Mean (SD) change from baseline [5, 17]: −1.1 (3.3) kg
mean weight change ([5]; final evaluation (LOCF)): -1.1 kg
mean change in weight ([5]; patients with nausea or vomiting): -1.4 kg
mean change in weight ([5]; patients without nausea or vomiting): -1.0 kg
BPRS psychosis cluster, Adjusted Mean Change from Baseline (LS mean) ([6]; Month 6, listed as BX20): −0.1
BPRS total, Adjusted Mean Change from Baseline (LS mean) ([6]; Month 6, listed as BX20): −0.1
BPRS psychosis cluster, Adjusted Mean Change from Baseline (LS mean) ([6]; Month 6, listed as BX30): −0.2
BPRS total, Adjusted Mean Change from Baseline (LS mean) ([6]; Month 6, listed as BX30): 0.5
BPRS psychosis cluster, Adjusted Mean Change from Baseline (LS mean) ([6]; Week 6, listed as BX20): −0.8
BPRS total, Adjusted Mean Change from Baseline (LS mean) ([6]; Week 6, listed as BX20): −2.1
BPRS psychosis cluster, Adjusted Mean Change from Baseline (LS mean) ([6]; Week 6, listed as BX30): −0.7
BPRS total, Adjusted Mean Change from Baseline (LS mean) ([6]; Week 6, listed as BX30): −1.3
increase in AUC with a standard high-fat meal ([7]; 40 mg dose): 29%
increase in Cmax with a standard high-fat meal ([7]; 40 mg dose): 10%
Tmax ([7]; human, plasma, oral, 40 mg): 1.5 h
effect on patients' status of metabolic syndrome ([8]; BX either dose (20 or 30 mg/day)): no treatment effect
metabolic profile (weight changes, blood lipids, metabolic syndrome) ([8]; bifeprunox 20 or 30 mg/day): A favorable metabolic profile
incidence of N to H shifts in tri-iodine thyronine ([9]; Bifeprunox 30 mg): 6%
incidence of N to L shifts in TSH ([9]; Bifeprunox 30 mg): 4%
incidence of N to H shifts in tri-iodine thyronine ([9]; Bifeprunox 40 mg): 5%
incidence of N to L shifts in TSH ([9]; Bifeprunox 40 mg): 5%
shifts in lipids compared with the placebo and risperidone groups ([9]; bifeprunox 30, 40 mg, 6 weeks): lower incidence of N to H shifts in triglycerides, VLDL, and LDL
PANSS positive subscale scores versus PBO, per-visit LOCF analysis ([10]; BX20 or BX30): statistically significantly superior to that with PBO from Week 6 onwards
PANSS positive subscale, Adjusted Mean Change from Baseline (LS mean) ([10]; Month 6): 0.3
PANSS positive subscale, Adjusted Mean Change from Baseline (LS mean) ([10]; Week 6, listed as BX20): −0.9
PANSS positive subscale, Adjusted Mean Change from Baseline (LS mean) ([10]; Week 6, listed as BX30): −0.8
